Columns and labels:
Assay in all cases: Bliss excess, mean over the matrix (fraction); higher = more synergy
A673 (Ewing's Sarcoma) = tested on: A673 (Ewing's Sarcoma)
Outline: (§1)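 Bliss excess equals the observed combination effect minus the expected value EA + EB − EA·EB, where EA and EB are the effects of each agent alone. Combination Emax is the second-highest inhibition within the matrix. Inhibition was scaled from CellTiter-Glo 2.0 luminescence, with 0 set by vehicle wells and 1 by blank wells, after 72 hours of two-drug dosing of cells plated in 1536-well plates.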

[1] = tested on: BE-13 (T-Lymphoblastic Leukemia)
Outline: as §1

GAMG (Glioblastoma) = tested on: GAMG (Glioblastoma)
Outline: as §1

KS-1 (Glioblastoma) = tested on: KS-1 (Glioblastoma)
Outline: as §1

[2] = tested on: LNZTA3WT4 (Low Grade Glioma)
Outline: as §1

[3] = tested on: SNU-449 (Hepatocellular Carcinoma)
Outline: as §1

[4] = tested on: SW1710 (Bladder Carcinoma)
Outline: as §1

[5] = tested on: WSU-NHL (B-Cell Non-Hodgkin's Lymphoma)
Outline: as §1

[6] = tested on: YAPC (Pancreatic Carcinoma)
Outline: as §1

[7] = tested on: KYAE-1 (Esophageal Adenocarcinoma)
Outline: as §1

Row | Structure (SMILES) | Bliss excess (A673 (Ewing's Sarcoma)) | Bliss excess [1] | Bliss excess (GAMG (Glioblastoma)) | Bliss excess (KS-1 (Glioblastoma)) | Bliss excess [2] | Bliss excess [3] | Bliss excess [4] | Bliss excess [5] | Bliss excess [6] | Bliss excess [7]
1 | C=CCn1c(=O)c2cnc(Nc3ccc(N4CCN(C)CC4)cc3)nc2n1-c1cccc(C(C)(C)O)n1 [AZD1775] + Nc1ccn([C@@H]2O[C@H](CO)[C@@H](O)C2(F)F)c(=O)n1 [Gemcitabine] (first compound max 1 µM, partner max 0.3 µM) | 0.039 | 0.0778 | 0.0684 | 0.0304 | 0.0746 | -0.0186 | 0.0838 | -0.0035 | 0.109 | –
2 | CN(CCO)CC[C@H](CSc1ccccc1)Nc1ccc(S(=O)(=O)NC(=O)c2ccc(N3CCC([C@@H](O)c4ccccc4-c4ccc(Cl)cc4)CC3)cc2)cc1S(=O)(=O)C(F)(F)F [AZD4320] + CS(=O)(=O)CCNCc1ccc(-c2ccc3ncnc(Nc4ccc(OCc5cccc(F)c5)c(Cl)c4)c3c2)o1 [Lapatinib] (first compound max 1 µM, 7x7, partner max 10 µM) | 0.0505 | 0.0292 | 0.1 | 0.0137 | 0.0677 | 0.021 | -0.0324 | 0.0183 | -0.0148 | 0.0699
3 | Cc1c2c(nn1C)CSCc1cc(n(C)n1)CSc1cc(c3ccccc3c1)OCCCc1c(C(=O)O)n(C)c3c-2c(Cl)ccc13 [AZD5991] + CC(=O)O[C@H]1C(=O)[C@@]2(C)[C@H]([C@H](OC(=O)c3ccccc3)[C@]3(O)C[C@H](OC(=O)[C@H](O)[C@@H](NC(=O)c4ccccc4)c4ccccc4)C(C)=C1C3(C)C)[C@]1(OC(C)=O)CO[C@@H]1C[C@@H]2O [Paclitaxel] (first compound max 1 µM, 7x7, partner max 3 µM) | 0.0296 | -0.0476 | 0.039 | -0.0057 | -0.0447 | -0.0404 | -0.0241 | -0.0565 | 0.0224 | 0.0015
4 | Cc1c2c(nn1C)CSCc1cc(n(C)n1)CSc1cc(c3ccccc3c1)OCCCc1c(C(=O)O)n(C)c3c-2c(Cl)ccc13 [AZD5991] + CS(=O)(=O)CCNCc1ccc(-c2ccc3ncnc(Nc4ccc(OCc5cccc(F)c5)c(Cl)c4)c3c2)o1 [Lapatinib] (first compound max 1 µM, 7x7, partner max 10 µM) | 0.0006 | 0.0363 | 0.0088 | -0.0277 | 0.0355 | 0.0212 | -0.0639 | -0.0347 | -0.0084 | 0.0569
5 | C[C@@H]1COCCN1c1cc(C2([S@](C)(=N)=O)CC2)nc(-c2ccnc3[nH]ccc23)n1 [AZD6738] + C1CC(C1)(C(=O)[O-])C(=O)[O-].N.N.[Pt+2] [Carboplatin] (first compound max 10 µM, 7x7, partner max 10 µM) | 0.0216 | -0.0436 | -0.0162 | -0.0536 | -0.0459 | -0.0341 | -0.0642 | -0.054 | -0.0227 | -0.015
6 | C[C@@H]1COCCN1c1cc(C2([S@](C)(=N)=O)CC2)nc(-c2ccnc3[nH]ccc23)n1 [AZD6738] + Nc1ccn([C@@H]2O[C@H](CO)[C@@H](O)C2(F)F)c(=O)n1 [Gemcitabine] (first compound max 10 µM, 7x7, partner max 0.3 µM) | 0.0144 | 0.153 | 0.0615 | 0.0043 | 0.186 | 0.0623 | 0.0769 | 0.014 | 0.0296 | -0.0077
7 | C[C@@H](Nc1cc(F)cc(F)c1)c1cc(C(=O)N(C)C)cc2c(=O)cc(N3CCOCC3)oc12 [AZD8186] + C1CN(CCC1(C(=O)N[C@@H](CCO)C2=CC=C(C=C2)Cl)N)C3=NC=NC4=C3C=CN4 [AZD5363] (first compound max 10 µM, 7x7, partner max 10 µM) | 0.0084 | -0.028 | -0.0849 | -0.0233 | -0.0615 | -0.0206 | -0.0408 | -0.0018 | -0.0214 | -0.0101
8 | C[C@@H](Oc1cc(-c2cnn(C3CCNCC3)c2)cnc1N)c1c(Cl)ccc(F)c1Cl [Crizotinib] + CC1=C(C(=CC=C1)Cl)NC(=O)C2=CN=C(S2)NC3=CC(=NC(=N3)C)N4CCN(CC4)CCO [Dasatinib] (first compound max 10 µM, 7x7, partner max 2 µM) | -0.0281 | 0.0321 | 0.0164 | 0.0499 | 0.0429 | 0.0569 | 0.031 | 0.0202 | 0.0219 | 0
9 | C[C@@H](Oc1cc(-c2cnn(C3CCNCC3)c2)cnc1N)c1c(Cl)ccc(F)c1Cl [Crizotinib] + Cn1cnc2c(F)c(Nc3ccc(Br)cc3Cl)c(C(=O)NOCCO)cc21 [Selumetinib] (first compound max 10 µM, 7x7, partner max 10 µM) | -0.0206 | -0.0251 | -0.0308 | 0.0483 | -0.0285 | -0.0665 | -0.0956 | -0.0382 | -0.0319 | -0.0153
